{"source": "patent US20260125400A1", "about": "“TYK2 DEGRADERS AND USES THEREOF” (Kymera Therapeutics, Inc., priority 2023, published 2026)"}
{"target": "T1, TYK2 (Homo sapiens, UniProt P29597)", "T1 construct": "Degradation of TYK2 in cells was quantitatively measured using Meso Scale Discovery (MSD) technology; endogenous in cells; host or cells: OCI-LY10", "T1 sequence (P29597 whole entry)": "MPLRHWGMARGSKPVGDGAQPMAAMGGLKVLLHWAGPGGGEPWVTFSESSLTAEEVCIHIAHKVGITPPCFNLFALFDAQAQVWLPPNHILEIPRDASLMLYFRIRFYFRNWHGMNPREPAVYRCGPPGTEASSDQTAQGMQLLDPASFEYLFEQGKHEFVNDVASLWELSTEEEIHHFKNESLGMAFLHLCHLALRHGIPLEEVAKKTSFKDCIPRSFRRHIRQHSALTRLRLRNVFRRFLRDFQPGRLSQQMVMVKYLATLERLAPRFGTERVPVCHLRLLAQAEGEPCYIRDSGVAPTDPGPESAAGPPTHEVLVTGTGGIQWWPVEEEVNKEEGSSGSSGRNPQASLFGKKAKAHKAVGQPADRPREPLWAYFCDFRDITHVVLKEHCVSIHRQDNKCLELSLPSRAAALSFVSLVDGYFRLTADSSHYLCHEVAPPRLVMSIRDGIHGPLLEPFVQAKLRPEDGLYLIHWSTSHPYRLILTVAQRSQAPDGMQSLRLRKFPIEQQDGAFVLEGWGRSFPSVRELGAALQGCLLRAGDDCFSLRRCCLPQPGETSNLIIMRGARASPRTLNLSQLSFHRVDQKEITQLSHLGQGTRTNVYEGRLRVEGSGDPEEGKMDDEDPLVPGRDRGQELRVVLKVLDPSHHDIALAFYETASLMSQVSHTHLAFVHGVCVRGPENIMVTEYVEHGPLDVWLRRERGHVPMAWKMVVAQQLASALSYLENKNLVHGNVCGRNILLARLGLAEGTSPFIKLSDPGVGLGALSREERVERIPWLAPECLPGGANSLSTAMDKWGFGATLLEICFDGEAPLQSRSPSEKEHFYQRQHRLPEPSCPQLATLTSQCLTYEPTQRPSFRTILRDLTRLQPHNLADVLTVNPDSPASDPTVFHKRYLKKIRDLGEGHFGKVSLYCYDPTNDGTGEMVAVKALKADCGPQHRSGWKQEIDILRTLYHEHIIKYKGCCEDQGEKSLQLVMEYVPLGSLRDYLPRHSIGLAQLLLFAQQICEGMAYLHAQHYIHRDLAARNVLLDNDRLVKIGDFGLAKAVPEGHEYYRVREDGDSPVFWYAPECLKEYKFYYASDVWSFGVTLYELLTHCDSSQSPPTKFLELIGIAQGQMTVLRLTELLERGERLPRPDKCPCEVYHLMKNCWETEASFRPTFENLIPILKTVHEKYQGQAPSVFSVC", "assay": "TYK2 MSD degradation in OCI-LY10 cells", "type": "cell-based", "settings": "TYK2 degradation in OCI-LY10 cells, 4 to 24 hours incubation", "procedure,_shortened": "(§1)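 Cellular TYK2 levels were measured by Meso Scale Discovery sandwich detection in RIPA lysates of OCI-LY10 cells exposed 4 to 24 hours at 37° C to nine 1:3 compound doses starting at 1 to 10 μM final; dose-response fitted by four-parameter regression.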"}
{"smiles": "CNc1cc(N2CCc3c(CN4CCC(N5CCC(OCC#Cc6cccc7c6n(C)c(=O)n7C6CCC(=O)NC6=O)CC5)C(F)(F)C4)cccc32)nn2c(C(=O)N[C@@H]3C[C@@H]3F)cnc12", "note": "(stereo partly drawn) [I-372]", "TYK2 MSD OCI-LY10 Dmax %": "D (D (<50%))"}
{"smiles": "CNc1cc(N2CCc3c(-c4ccc(CN5CC6(CCN(C(=O)c7ccc(C(F)F)c(N8CCC(=O)NC8=O)c7)CC6(F)F)C5)cn4)cccc32)nn2c(C(=O)N[C@@H]3C[C@@H]3F)cnc12", "note": "[I-977]", "TYK2 MSD OCI-LY10 Dmax %": "C (C (75 to 50%))"}
{"smiles": "CNc1cc(N2CCc3c(-c4ncc([C@H](C)N5CC6(CCN(C(=O)c7cc(C)c(Cl)c(N8CCC(=O)NC8=O)c7)CC6(F)F)C5)cc4F)cccc32)nn2c(C(=O)N[C@@H]3CC[C@H]3OC)cnc12", "note": "[I-1143]", "TYK2 MSD OCI-LY10 Dmax %": "A (A (>90%))"}
{"smiles": "CNc1cc(N2CCc3c(-c4ncc(CN5CC6(CCN(C(=O)c7cc(N8CCC(=O)NC8=O)c(F)cn7)CC6(F)F)C5)cc4F)cc(F)cc32)nn2c(C(=O)N[C@@H]3CC[C@H]3OC)cnc12", "note": "[I-1155]", "TYK2 MSD OCI-LY10 Dmax %": "B (B (90 to >75%))"}
{"smiles": "CNc1cc(N2CCc3c(CN4CCC(CN5CCN(C(=O)c6ccc(Cl)c(N7CCC(=O)NC7=O)c6)CC5)CC4)cccc32)nn2c(C(=O)N[C@@H]3C[C@@H]3F)cnc12", "note": "[I-891]", "TYK2 MSD OCI-LY10 Dmax %": "D (D (<50%))"}
{"smiles": "CNc1cc(N2CCc3c(CN4CCC(N5CCC6(CCN(c7ccc8c(c7)n(C)c(=O)n8C7CCC(=O)NC7=O)CC6)CC5)C(F)(F)C4)cccc32)nn2c(C(=O)N[C@@H]3C[C@@H]3F)cnc12", "note": "(stereo partly drawn) [I-237]", "TYK2 MSD OCI-LY10 Dmax %": "B (B (90 to >75%))"}
{"smiles": "CNc1cc(N2CCc3c(C#CCN4CCC5(CCN(C(=O)c6ccc(Cl)c(N7CCC(=O)NC7=O)c6)CC5)C(F)(F)C4)cccc32)nn2c(C(=O)N[C@@H]3C[C@@H]3F)cnc12", "note": "[I-242]", "TYK2 MSD OCI-LY10 Dmax %": "C (C (75 to 50%))"}
{"smiles": "CNc1cc(N2CCc3c(CN4CC[C@H](N5CCC6(CCN(C(=O)c7cc(N8CCC(=O)NC8=O)c(Cl)cn7)CC6)CC5)C(F)(F)C4)cc(F)cc32)nn2c(C(=O)N[C@@H]3CC[C@H]3OC)cnc12", "note": "[I-1148]", "TYK2 MSD OCI-LY10 Dmax %": "B (B (90 to >75%))"}
{"smiles": "CNc1cc(N2CCc3c(-c4ccc(CN5CC6(CCN(C(=O)c7ccc(Cl)c(N8CCC(=O)NC8=O)c7)CC6(F)F)C5)cn4)cc(C)cc32)nn2c(C(=O)N[C@@H]3C[C@@H]3F)cnc12", "note": "[I-852]", "TYK2 MSD OCI-LY10 Dmax %": "B (B (90 to >75%))"}
{"smiles": "CNc1cc(N2CCc3c(-c4ccc(CN5CCC(N6CCC(COc7ccc(Cl)c(N8CCC(=O)NC8=O)c7)CC6)CC5)cn4)cccc32)nn2c(C(=O)NC3CCC3OC)cnc12", "note": "(stereo not drawn) [I-1006]", "TYK2 MSD OCI-LY10 Dmax %": "B (B (90 to >75%))"}
{"smiles": "CNc1cc(N2CCc3c(-c4ccc(CN5CC6(CCN(Cc7ccc(Cl)c(C8CCC(=O)NC8=O)c7)CC6(F)F)C5)cn4)cccc32)nn2c(C(=O)N[C@@H]3C[C@@H]3F)cnc12", "note": "(stereo partly drawn) [I-365]", "TYK2 MSD OCI-LY10 Dmax %": "C (C (75 to 50%))"}
{"smiles": "CNc1cc(N2CCc3c(-c4ccc(CN5CCC6(CCN(C(=O)c7ccc(Cl)c(N8CCC(=O)NC8=O)c7)CC6)C(F)(F)C5)cn4)cccc32)nn2c(C(=O)N[C@@H]3C[C@@H]3F)cnc12", "note": "[I-901]", "TYK2 MSD OCI-LY10 Dmax %": "A (A (>90%))"}
{"smiles": "CNc1cc(N2CCc3c(-c4ccc(CN5CCC6(CC5)CCN(C(=O)c5ccc(Cl)c(C7CCC(=O)NC7=O)c5)CC6)cn4)cccc32)nn2c(C(=O)N[C@@H]3C[C@@H]3F)cnc12", "note": "(stereo partly drawn) [I-91]", "TYK2 MSD OCI-LY10 Dmax %": "B (B (90 to >75%))"}
{"smiles": "COC1(c2cc(-c3ccc(CN4CC5(CCN(C(=O)c6ccc(Cl)c(N7CCC(=O)NC7=O)c6)CC5)C4)cn3)cc(-c3cn(C)c4cnc(NC(C)=O)cc34)n2)CCOC1", "note": "(stereo not drawn) [I-850]", "TYK2 MSD OCI-LY10 Dmax %": "B (B (90 to >75%))"}
{"smiles": "CNc1cc(N2CCc3c(N4CCN(C5CCC6(CC5)CCN(c5ccc7c(c5)n(C)c(=O)n7C5CCC(=O)NC5=O)CC6)CC4)cccc32)nn2c(C(=O)NC3CC3)cnc12", "note": "(stereo not drawn) [I-31]", "TYK2 MSD OCI-LY10 Dmax %": "D (D (<50%))"}
{"smiles": "CNc1cc(N2CCc3c(-c4ccc(CN5CCC(N6CCC(C7CCN(c8ccc9c(c8)n(C)c(=O)n9C8CCC(=O)NC8=O)CC7)CC6)C(F)(F)C5)cn4)cccc32)nn2c(C(=O)N[C@@H]3C[C@@H]3F)cnc12", "note": "(stereo partly drawn) [I-360]", "TYK2 MSD OCI-LY10 Dmax %": "B (B (90 to >75%))"}
{"smiles": "CNc1cc(N2CCc3c(CN4CCC(CN5CCC6(CCN(C(=O)c7ccc(Cl)c(N8CCC(=O)NC8=O)c7)CC6)C(F)(F)C5)C(F)(F)C4)cccc32)nn2c(C(=O)N[C@@H]3CC[C@H]3OC)cnc12", "note": "(stereo partly drawn) [I-1124]", "TYK2 MSD OCI-LY10 Dmax %": "A (A (>90%))"}
{"smiles": "CNc1cc(N2CC3(CCN(Cc4ccc5c(c4)n(C)c(=O)n5C4CCC(=O)NC4=O)CC3)c3ccccc32)nn2c(C(=O)NC3CC3)cnc12", "note": "(stereo not drawn) [I-34]", "TYK2 MSD OCI-LY10 Dmax %": "D (D (<50%))"}
{"target": "T1, TYK2", "assay": "TYK2 MSD degradation in OCI-LY10 cells", "type": "cell-based", "settings": "TYK2 degradation in OCI-LY10 cells, 4 to 24 hours incubation, read-out: TYK2 MSD OCI-LY10 Rel-DC50", "procedure,_shortened": "as §1", "units": {"DC50": "nM"}}
{"smiles": "CNc1cc(N2CCc3c(CN4CCC(N5CCC(OCC#Cc6cccc7c6n(C)c(=O)n7C6CCC(=O)NC6=O)CC5)C(F)(F)C4)cccc32)nn2c(C(=O)N[C@@H]3C[C@@H]3F)cnc12", "note": "(stereo partly drawn) [I-372]", "DC50": "< 10"}
{"smiles": "CNc1cc(N2CCc3c(-c4ccc(CN5CC6(CCN(C(=O)c7ccc(C(F)F)c(N8CCC(=O)NC8=O)c7)CC6(F)F)C5)cn4)cccc32)nn2c(C(=O)N[C@@H]3C[C@@H]3F)cnc12", "note": "[I-977]", "DC50": "< 10"}
{"smiles": "CNc1cc(N2CCc3c(-c4ncc([C@H](C)N5CC6(CCN(C(=O)c7cc(C)c(Cl)c(N8CCC(=O)NC8=O)c7)CC6(F)F)C5)cc4F)cccc32)nn2c(C(=O)N[C@@H]3CC[C@H]3OC)cnc12", "note": "[I-1143]", "DC50": "< 1"}
{"smiles": "CNc1cc(N2CCc3c(-c4ncc(CN5CC6(CCN(C(=O)c7cc(N8CCC(=O)NC8=O)c(F)cn7)CC6(F)F)C5)cc4F)cc(F)cc32)nn2c(C(=O)N[C@@H]3CC[C@H]3OC)cnc12", "note": "[I-1155]", "DC50": "< 1"}
{"smiles": "CNc1cc(N2CCc3c(CN4CCC(CN5CCN(C(=O)c6ccc(Cl)c(N7CCC(=O)NC7=O)c6)CC5)CC4)cccc32)nn2c(C(=O)N[C@@H]3C[C@@H]3F)cnc12", "note": "[I-891]", "DC50": "> 100"}
{"smiles": "CNc1cc(N2CCc3c(CN4CCC(N5CCC6(CCN(c7ccc8c(c7)n(C)c(=O)n8C7CCC(=O)NC7=O)CC6)CC5)C(F)(F)C4)cccc32)nn2c(C(=O)N[C@@H]3C[C@@H]3F)cnc12", "note": "(stereo partly drawn) [I-237]", "DC50": "< 1"}
{"smiles": "CNc1cc(N2CCc3c(C#CCN4CCC5(CCN(C(=O)c6ccc(Cl)c(N7CCC(=O)NC7=O)c6)CC5)C(F)(F)C4)cccc32)nn2c(C(=O)N[C@@H]3C[C@@H]3F)cnc12", "note": "[I-242]", "DC50": "< 10"}
{"smiles": "CNc1cc(N2CCc3c(CN4CC[C@H](N5CCC6(CCN(C(=O)c7cc(N8CCC(=O)NC8=O)c(Cl)cn7)CC6)CC5)C(F)(F)C4)cc(F)cc32)nn2c(C(=O)N[C@@H]3CC[C@H]3OC)cnc12", "note": "[I-1148]", "DC50": "< 1"}
{"smiles": "CNc1cc(N2CCc3c(-c4ccc(CN5CC6(CCN(C(=O)c7ccc(Cl)c(N8CCC(=O)NC8=O)c7)CC6(F)F)C5)cn4)cc(C)cc32)nn2c(C(=O)N[C@@H]3C[C@@H]3F)cnc12", "note": "[I-852]", "DC50": "< 10"}
{"smiles": "CNc1cc(N2CCc3c(-c4ccc(CN5CCC(N6CCC(COc7ccc(Cl)c(N8CCC(=O)NC8=O)c7)CC6)CC5)cn4)cccc32)nn2c(C(=O)NC3CCC3OC)cnc12", "note": "(stereo not drawn) [I-1006]", "DC50": "< 10"}
{"smiles": "CNc1cc(N2CCc3c(-c4ccc(CN5CC6(CCN(Cc7ccc(Cl)c(C8CCC(=O)NC8=O)c7)CC6(F)F)C5)cn4)cccc32)nn2c(C(=O)N[C@@H]3C[C@@H]3F)cnc12", "note": "(stereo partly drawn) [I-365]", "DC50": "< 10"}
{"smiles": "CNc1cc(N2CCc3c(-c4ccc(CN5CCC6(CCN(C(=O)c7ccc(Cl)c(N8CCC(=O)NC8=O)c7)CC6)C(F)(F)C5)cn4)cccc32)nn2c(C(=O)N[C@@H]3C[C@@H]3F)cnc12", "note": "[I-901]", "DC50": "< 1"}
{"smiles": "CNc1cc(N2CCc3c(-c4ccc(CN5CCC6(CC5)CCN(C(=O)c5ccc(Cl)c(C7CCC(=O)NC7=O)c5)CC6)cn4)cccc32)nn2c(C(=O)N[C@@H]3C[C@@H]3F)cnc12", "note": "(stereo partly drawn) [I-91]", "DC50": "< 1"}
{"smiles": "COC1(c2cc(-c3ccc(CN4CC5(CCN(C(=O)c6ccc(Cl)c(N7CCC(=O)NC7=O)c6)CC5)C4)cn3)cc(-c3cn(C)c4cnc(NC(C)=O)cc34)n2)CCOC1", "note": "(stereo not drawn) [I-850]", "DC50": "< 10"}
{"smiles": "CNc1cc(N2CCc3c(N4CCN(C5CCC6(CC5)CCN(c5ccc7c(c5)n(C)c(=O)n7C5CCC(=O)NC5=O)CC6)CC4)cccc32)nn2c(C(=O)NC3CC3)cnc12", "note": "(stereo not drawn) [I-31]", "DC50": "< 10"}
{"smiles": "CNc1cc(N2CCc3c(-c4ccc(CN5CCC(N6CCC(C7CCN(c8ccc9c(c8)n(C)c(=O)n9C8CCC(=O)NC8=O)CC7)CC6)C(F)(F)C5)cn4)cccc32)nn2c(C(=O)N[C@@H]3C[C@@H]3F)cnc12", "note": "(stereo partly drawn) [I-360]", "DC50": "< 10"}
{"smiles": "CNc1cc(N2CCc3c(CN4CCC(CN5CCC6(CCN(C(=O)c7ccc(Cl)c(N8CCC(=O)NC8=O)c7)CC6)C(F)(F)C5)C(F)(F)C4)cccc32)nn2c(C(=O)N[C@@H]3CC[C@H]3OC)cnc12", "note": "(stereo partly drawn) [I-1124]", "DC50": "< 1"}
{"smiles": "CNc1cc(N2CC3(CCN(Cc4ccc5c(c4)n(C)c(=O)n5C4CCC(=O)NC4=O)CC3)c3ccccc32)nn2c(C(=O)NC3CC3)cnc12", "note": "(stereo not drawn) [I-34]", "DC50": "> 100"}
